Structures are written as SMILES. Bounds are passed on as bounds.

The target in the assay is human ALK5 (Homo sapiens (Human), UniProt P36897). The assay is described as follows: ADP-GLO Kinases assay, inhibitory activity on ALK5. The format is biochemical. Particulars: purified recombinant human ALK5 2.6 nM, TGFβ1 peptide substrate, 25° C, 150 min incubation, ADP-Glo detection; read-out: ALK5 IC50. For orientation: ADP-Glo first removes unused ATP, then detects ADP through luciferase.
human ALK5, sequence (P36897 80-503 limits assumed): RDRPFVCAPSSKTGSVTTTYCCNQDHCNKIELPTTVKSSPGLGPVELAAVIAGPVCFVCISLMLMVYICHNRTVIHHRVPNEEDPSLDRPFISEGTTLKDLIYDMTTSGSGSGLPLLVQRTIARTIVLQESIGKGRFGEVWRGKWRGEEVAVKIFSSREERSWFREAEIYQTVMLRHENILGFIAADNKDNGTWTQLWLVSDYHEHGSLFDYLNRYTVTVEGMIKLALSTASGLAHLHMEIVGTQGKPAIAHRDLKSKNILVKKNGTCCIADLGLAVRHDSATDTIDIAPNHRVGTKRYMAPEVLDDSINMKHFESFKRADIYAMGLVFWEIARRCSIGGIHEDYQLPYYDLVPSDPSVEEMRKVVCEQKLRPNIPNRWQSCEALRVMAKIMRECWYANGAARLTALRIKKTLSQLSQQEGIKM
A word on the IC50: it is the concentration that gives 50% inhibition. With `Cc1nnc(-c2cc(Cl)ccc2F)cc1Nc1ccnc(NC(=O)CCN2CCN(C)C(C(=O)OC3COC3)C2)c1` (stereo not drawn) [Example 129, oxetan-3-yl 4-{2-[(4-{[6-(5-chloro-2-fluorophenyl)-3-methylpyridazin-4-yl]amino}pyridin-2-yl)carbamoyl]ethyl}-1-methylpiperazine-2-carboxylate], the IC50 is less than 1 nM.
For `Cc1nnc(-c2cc(Cl)ccc2F)cc1Nc1ccnc(NC(=O)CCN2CC[S+]([O-])CC2)c1` [Example 130, N-(4-{[6-(5-Chloro-2-Fluorophenyl)-3-Methylpyridazin-4-Yl]Amino}Pyridin-2-Yl)-3-(1-Oxo-1V-Thiomorpholin-4-Yl)Propanamide], the IC50 is less than 1 nM.
For the molecule `Cc1nnc(-c2cc(Cl)ccc2F)cc1Nc1ccnc(NC(=O)CN2CCN(CC(F)(F)F)CC2)c1` [Example 131, N-(4-{[6-(5-Chloro-2-Fluorophenyl)-3-Methylpyridazin-4-Yl]Amino}Pyridin-2-Yl)-2-[14-(2,2,2-Trifluoroethyl)Piperazin-1-Yl]Acetamide], the IC50 is less than 1 nM.
As for `Cc1nnc(-c2cc(Cl)ccc2F)cc1Nc1ccnc(NC(=O)CCN2CCS(=O)(=O)CC2)c1` [Example 132, N-(4-{[6-(5-Chloro-2-Fluorophenyl)-3-Methylpyridazin-4-Yl]Amino}Pyridin-2-Yl)-3-(1,1-Dioxo-11,6-Thiomorpholin-4-Yl)Propanamide], the figure is less than 1 nM; as for `O=C(Oc1ccc2c(Nc3cnnc(-c4cc(Cl)ccc4F)c3)ccnc2c1)N1CC(N2CCCC2)C1` [Example 133, 4-{[6-(5-Chloro-2-Fluorophenyl)Pyridazin-4-Yl]Amino}Quinolin-7-Yl 3-(Pyrrolidin-1-Yl)Azetidine-1-Carboxylate], less than 1 nM.
With `O=C(Oc1ccc2c(Nc3cnnc(-c4cc(Cl)ccc4F)c3)ccnc2c1)N1CCC(N2CCC2)CC1` [Example 134, 4-{[6-(5-Chloro-2-Fluorophenyl)Pyridazin-4-Yl]Amino}Quinolin-7-Yl 4-(Azetidin-1-Yl)Piperidine-1-Carboxylate] the figure was less than 1 nM; with `Cc1nnc(-c2cc(Cl)ccc2F)cc1Nc1ccnc(NC(=O)CCN2CCN(C)C3(CC3)C2)c1` [Example 135, N-(4-{[6-(5-Chloro-2-Fluorophenyl)-3-Methylpyridazin-4-Yl]Amino}Pyridin-2-Yl)-3-{4-Methyl-4,7-Diazaspiro[2.5]Octan-7-Yl}Propanamide], less than 1 nM; with `Cc1nnc(-c2cc(Cl)ccc2F)cc1Nc1ccnc(NC(=O)CCN2CCN(CCNS(C)(=O)=O)CC2)c1` [Example 136, N-(4-{[6-(5-Chloro-2-Fluorophenyl)-3-Methylpyridazin-4-Yl]Amino}Pyridin-2-Yl)-3-[4-(2-Methanesulfonamidoethyl)Piperazin-1-Yl]Propanamide], less than 1 nM.
On to `CN1CC2CC1CN2C(=O)Oc1ccc2c(Nc3cnnc(-c4cc(Cl)ccc4F)c3)ccnc2c1` (stereo not drawn) [Example 137, 4-{[6-(5-Chloro-2-Fluorophenyl)Pyridazin-4-Yl]Amino}Quinolin-7-Yl 5-Methyl-2,5-Diazabicyclo[2.2.1]Heptane-2-Carboxylate], for which the IC50 is less than 1 nM.
As to `Cc1nnc(-c2cc(Cl)ccc2F)cc1Nc1ccnc(NC(=O)CCN2CC3(CN(C)C3)C2)c1` [Example 138, N-(4-{[6-(5-Chloro-2-Fluorophenyl)-3-Methylpyridazin-4-Yl]Amino}Pyridin-2-Yl)-3-{6-Methyl-2,6-Diazaspiro[3.3]Heptan-2-Yl}Propanamide], the IC50 is less than 1 nM.
Take `Cc1nnc(-c2cc(Cl)ccc2F)cc1Nc1ccnc(NC(=O)CCN2CCC(F)(F)CC2)c1` [Example 139, N-(4-{[6-(5-Chloro-2-Fluorophenyl)-3-Methylpyridazin-4-Yl]Amino}Pyridin-2-Yl)-3-(4,4-Difluoropiperidin-1-Yl)Propanamide]: the IC50 is less than 1 nM.
For `Cc1nnc(-c2cc(Cl)ccc2F)cc1Nc1ccnc(NC(=O)CCN2CCC(O)CC2)c1` [Example 140, N-(4-{[6-(5-Chloro-2-Fluorophenyl)-3-Methylpyridazin-4-Yl]Amino}Pyridin-2-Yl)-3-(4-Hydroxypiperidin-1-Yl)Propanamide], the IC50 is less than 1 nM.
